The CheMixHub viscosity set

Assay: xn = mol fraction of the nth substance listed

CCCCCCCCC + CCCCCCCCCC
298.15 K, 101.33 kPa
Conditions	viscosity [mPa·s]
x1 = 0.1051	0.8387
x1 = 0.2082	0.8061
x1 = 0.3045	0.7835
x1 = 0.4048	0.7761
x1 = 0.5057	0.7535
x1 = 0.6085	0.7344
x1 = 0.7065	0.7185
x1 = 0.806	0.6913
x1 = 0.897	0.6734

CCCCCC(=O)[O-].[Na+] + CCCCCCCCCC(=O)O
100 kPa, x1 = 0.3
Conditions	viscosity [mPa·s]
293.15 K	285.4
298.15 K	213.6
303.15 K	162.3
308.15 K	125.7
313.15 K	98.9
318.15 K	79
323.15 K	63.9

CCCCCCCCC + CCCCCCCCCCCC
298.15 K, 101.33 kPa
Conditions	viscosity [mPa·s]
x1 = 0.0957	1.273
x1 = 0.1995	1.187
x1 = 0.3049	1.111
x1 = 0.4056	1.022
x1 = 0.5088	0.969
x1 = 0.6103	0.8955
x1 = 0.7039	0.8282
x1 = 0.8049	0.7721
x1 = 0.9023	0.7118

CCCCCCCCC + CCCCCCCCCCCCCCCC
298.15 K, 101.33 kPa
Conditions	viscosity [mPa·s]
x1 = 0.1105	2.698
x1 = 0.2002	2.416
x1 = 0.3173	2.072
x1 = 0.4054	1.832
x1 = 0.5056	1.571
x1 = 0.5795	1.404
x1 = 0.7077	1.152
x1 = 0.8024	0.9655
x1 = 0.8988	0.8177

CCCCCCCCc1ccccc1 + CCCCCCCCCCCCCCCC
viscosity [mPa·s], 102 kPa
Conditions	x1 = 0.1177	x1 = 0.2297	x1 = 0.3377	x1 = 0.4423	x1 = 0.5431	x1 = 0.6411	x1 = 0.7351	x1 = 0.8263	x1 = 0.9146
293.15 K	3.28	3.16	3.05	2.94	2.85	2.78	2.71	2.65	2.62
303.15 K	2.61	2.52	2.44	2.36	2.3	2.25	2.19	2.15	2.12
313.15 K	2.13	2.06	2	1.94	1.89	1.86	1.81	1.78	1.76
323.15 K	1.77	1.72	1.67	1.63	1.59	1.56	1.52	1.5	1.48

CC(=O)c1ccccc1 + CCCCCO
298.15 K, 101 kPa
Conditions	viscosity [mPa·s]
x1 = 0.0754	3.104
x1 = 0.155	3.016
x1 = 0.2392	2.918
x1 = 0.3285	2.801
x1 = 0.4232	2.657
x1 = 0.524	2.498
x1 = 0.6313	2.31
x1 = 0.7459	2.102
x1 = 0.8685	1.898

C1COCO1 + CCCCO
viscosity [mPa·s], 101 kPa
Conditions	298.15 K	303.15 K	313.15 K
x1 = 0.1001	–	1.74	–
x1 = 0.1022	1.884	–	1.354
x1 = 0.1981	1.493	–	1.109
x1 = 0.2001	–	1.373	–
x1 = 0.3001	–	1.113	–
x1 = 0.3055	1.201	–	0.9166
x1 = 0.4001	–	0.9587	–
x1 = 0.4054	1.014	–	0.7915
x1 = 0.5001	–	0.8419	–
x1 = 0.5008	0.8912	–	0.7023
x1 = 0.6001	–	0.7305	–
x1 = 0.6035	0.7757	–	0.6292
x1 = 0.7001	–	0.6582	–
x1 = 0.7024	0.6998	–	0.5763
x1 = 0.8001	–	0.6192	–
x1 = 0.8009	0.6441	–	0.5372
x1 = 0.9001	–	0.5873	–
x1 = 0.9002	0.6073	–	0.5116

CN(C)P(=O)(N(C)C)N(C)C + CCCCO
303.15 K, 101.3 kPa
Conditions	viscosity [mPa·s]
x1 = 0.0872	2.283
x1 = 0.1988	2.312
x1 = 0.2977	2.351
x1 = 0.3888	2.404
x1 = 0.4941	2.487
x1 = 0.5894	2.567
x1 = 0.6891	2.655
x1 = 0.7954	2.745
x1 = 0.8991	2.834

CC(=O)c1ccccc1 + CCCCOC(C)=O
viscosity [mPa·s], 101 kPa
Conditions	x2 = 0.0904	x2 = 0.1786	x2 = 0.2746	x2 = 0.37	x2 = 0.4671	x2 = 0.5675	x2 = 0.672	x2 = 0.7729	x2 = 0.8848
298.15 K	1.557	1.452	1.341	1.232	1.129	1.028	0.933	0.848	0.763
303.15 K	1.405	1.312	1.212	1.115	1.024	0.934	0.849	0.772	0.696
308.15 K	1.29	1.207	1.119	1.034	0.95	0.87	0.792	0.724	0.655
313.15 K	1.188	1.112	1.032	0.954	0.877	0.804	0.734	0.671	0.608

C1COCO1 + CCCCOCCO
298.15 K, 101 kPa
Conditions	viscosity [mPa·s]
x1 = 0.1506	2.2
x1 = 0.2851	1.773
x1 = 0.4061	1.465
x1 = 0.5154	1.229
x1 = 0.6147	1.053
x1 = 0.7053	0.9156
x1 = 0.7882	0.8012
x1 = 0.8645	0.7116
x1 = 0.9349	0.6419

CCCOCC(C)O (centres undefined) + CCCNCCC
viscosity [mPa·s], 100 kPa
Conditions	298.15 K	303.15 K	308.15 K
x1 = 0.0501	0.5507	0.5133	0.4872
x1 = 0.1003	0.6065	0.556	0.5257
x1 = 0.1502	0.6545	0.6056	0.571
x1 = 0.1999	0.7308	0.6597	0.6196
x1 = 0.3	0.8816	0.7957	0.7427
x1 = 0.4	1.089	0.969	0.894
x1 = 0.4999	1.294	1.144	1.052
x1 = 0.6	1.558	1.351	1.228
x1 = 0.6999	1.823	1.571	1.415
x1 = 0.7997	2.079	1.784	1.603
x1 = 0.8999	2.275	1.945	1.748
x1 = 0.9498	2.357	2.016	1.815

C1COCO1 + CCCO
303.15 K, 101 kPa
Conditions	viscosity [mPa·s]
x1 = 0.08269	1.258
x1 = 0.1686	1.067
x1 = 0.258	0.9345
x1 = 0.351	0.8208
x1 = 0.4479	0.7339
x1 = 0.5489	0.6454
x1 = 0.6543	0.592
x1 = 0.7644	0.5684
x1 = 0.8795	0.5564

CN(C)P(=O)(N(C)C)N(C)C + CCCO
303.15 K, 101.3 kPa
Conditions	viscosity [mPa·s]
x1 = 0.0989	1.896
x1 = 0.1996	1.991
x1 = 0.3022	2.102
x1 = 0.4027	2.217
x1 = 0.4525	2.272
x1 = 0.598	2.444
x1 = 0.6994	2.569
x1 = 0.7809	2.666
x1 = 0.8672	2.766
